Experimental data: EP0022330B1, “Synergistic antihypertensive compositions” (SMITHKLINE BECKMAN CORPORATION, priority 1979, dated 1981)
“And” between values parts separate entries of the source, which are not always exact repeats. Equal values may be shown once. Read-outs that look alike come from different tables or passages of the source. Marks after values point to notes of the source that are not given here.

Key:
Assay type in all cases: in vivo
[1] = system: anesthetized normotensive dogs; assay: renal dopamine-like activity by infusion in anesthetized normotensive dogs; settings: for ED15: Canis lupus familiaris, iv, infusion, anesthetized normotensive dogs
Protocol: In the test procedure for determining renal dopamine-like activity by infusion in anesthetized normotensive dogs, 6 - chloro - 7,8 - dihydroxy - 1 - (p - hydroxyphenyl) - 2,3,4,5 - tetrahydro - 1 H - 3 - benzazepine has an ED15 of 0.3 µg/kg. The details of the test procedure are presented in the literature references mentioned above. The tri-O-acetyl derivative of this compound has an ED1. of 25 µg/kg, and the tri-O-isobutyryl derivative has an ED15 of 16 µg/kg. Other compounds of Formula I having renal dopaminergic activity can be used by comparing their activity in the anesthetized dog protocol with that of the above specifically named compound in preparing hypotensively effective and non-toxic dosage regimens. For example, referring to compounds of the Formula I in which R is H: […]
The renal dopaminergic ED1. values given above for the infused anesthetized dog are useful to assess quantitative and qualitative biological properties of the 1 - hydroxyphenyl - 7,8 - dihydroxy - 2,3,4,5 - tetrahydro - 1 H - 3 - benzazepine compounds of Formula I. These compounds are preferably given by oral administration. They are rapidly absorbed from the gastrointestinal tract, and have a relatively short half life in vivo. Therefore, the renal dopaminergic agent must be matched with conventional dosage regimens of the diuretic agents considering the pharmacokinetic properties of each active component. This may be accomplished by combining the renal dopaminergic agent with a diuretic in standard dosage unit forms for administration from 2-6 times daily. This would be most suitable when the diuretic agent is of a short acting nature and conventionally multiple daily doses are used to give the desired maintenanance level.

[2] = system: glucose-infused unanesthetized dog; assay: renal clearance study in the glucose-infused unanesthetized dog; settings: hydrochlorothiazide 2.5 mg/kg i.v. then 3.0 mg/kg/hr infusion
Protocol: In the glucose-infused unanesthetized dog, 6 - chloro - 7,8 - dihydroxy - 1 - (p - hydroxyphenyl) 2,3,4,5 - tetrahydro - 1 H - 3 - benzazepine methyl sulfonate was given at the peak time of natriureses established by a maximally effective dose of hydrochlorothiazide.
All dogs were given an oral water load of 3% of body weight of tap water thirty minutes prior to initiation of the experiment. Using a constant infusion pump the dogs were infused intravenously at 3 ml/min. throughout the course of the experiment, with a 5% dextrose solution containing 3.0 mg/kg/hr of hydrochlorothiazide (HCTZ). Glomerular filtration rate was determined by the clearance of creatinine and effective renal plasma flow by the clearance of p-aminohippuric acid (PAH). […] The solution also contained 0.02% ascorbic acid. Suitable plasma levels of creatinine and p-aminohippuric acid were obtained by a twenty minute infusion of this solution to obtain equilibrium prior to starting of the initial urine collection. […] 1.5 ml/kg of a 1% creatinine solution in saline was also injected intravenously fifteen minutes prior to the start of the collection of urine. Replicate urine collections were obtained at ten minute intervals throughout the experiment. The bladder was emptied by an indwelling catheter and complete urine collections were measured by rinsing the bladder with 10 ml of water at the end of each collection interval, followed by an air wash-out. Venous blood samples were drawn from an indwelling catheter at the mid-point of each clearance period.
Plasma and urine osmolalities were determined by freezing point depression on freshly obtained samples. Urine volume and pH were recorded at the time of collection. Plasma and urine samples were stored frozen after collection, until analyzed. Analysis for sodium and potassium were made using the flame. photometer, and for chloride, creatinine, and p-aminohippuric acid, by colorimeter, using standard methodologies. These analyses were made simultaneously on each sample. Peak intensities were identified electronically, recorded by "on-line" teletype, stored and subsequently analyzed mathematically by time-shared computer against appropriate standards. Data were computed from linear least square regression lines and quality control standards were analyzed simultaneously to evaluate system reproducibility and reliability.
In the experiments where hydrochlorothiazide alone was given, twelve clearances were obtained. […] In the combination study the benzazepine was given by stomach tube at 5.0 mg/kg (base) after Ca, The compound was solubilized in water with a small amount of sugar syrup to prevent or minimize emesis. Clearances C7-C'2 (treatment) as in the hydrochlorothiazide alone tests, were taken with no wait between C6 and C7. Five dogs were used with both hydrochlorothiazide and with the combination.

[3] = system: phosphate mannitol infused dog; assay: renal clearance study in the phosphate-mannitol infused dog; settings: change from control, triamterene 10 mg. p.o., benzazepine 2.5 mg. p.o.
Excerpt: Mannitol itself has some proximal natriuretic effect which tends to screen any synergistic effect of the combination. […] In the parameters presented, the control figures are actual values. Phase II, III and IV are changes from control.

[4] = system: glucose-infused unanesthetized dog; assay: renal clearance study in the glucose-infused unanesthetized dog; settings: single dose, benzazepine salt alone, glucose-infused dog protocol
[5] = individual dog, difference between averages of C1—C6 and C7—C12

Cc1c(O)c(O)c(Cl)c2c1CCNCC2c1ccc(O)cc1 (centres unmarked) [E]
ED15 ([1]; read-out: ED15): 30 µg/kg

CC(=O)Oc1ccc(C2CNCCc3c2cc(OC(C)=O)c(OC(C)=O)c3Cl)cc1 (centres unmarked) [tri-O-acetyl derivative, 6 - chloro - 7,8 - diacetoxy - 1 - (4 - acetoxyphenyl) 2,3,4,5 - tetrahydro - 1H - 3 - benzazepine]
ED15 ([1]; read-out: ED1.): 25 µg/kg

Oc1ccc(C2CNCCc3c(Cl)c(O)c(O)c(Cl)c32)cc1 (centres unmarked) [D, 6,9 - dichloro - 7,8 - dihydroxy - 1 - (4 - hydroxyphenyl) - 2,3,4,5 - tetrahydro - 1H - 3 - benzazepine]
ED15 ([1]; read-out: ED15): 620 µg/kg

NS(=O)(=O)c1cc2c(cc1Cl)NCNS2(=O)=O [Hydrochlorothiazide, hydrochlorothiazide]
Filtration Fraction Δ ([2]; Average of five dogs): −.012 | Glomerular Filtration Rate (GFR) Δ % Change ([2]; Average of five dogs): −2.4% | Ranal Plasma Flow (RPF) Δ % Change ([2]; Average of five dogs): +2.6% | Δ % Na^+ Excreted ([2]; Average of five dogs): −0.82% | Filtration Fraction Δ [2, 5]: −.01 and 0 and +.01 and −.03 (2×) | Glomerular Filtration Rate (GFR) Δ % Change [2, 5]: −6% and +6% and −7% and 0% and −5% | Ranal Plasma Flow (RPF) Δ % Change [2, 5]: −1% and +6% and −10% and +7% and +11% | Δ % Na^+ Excreted [2, 5]: −1.1% (2×) and −0.8% and −0.5% and −0.6%

Oc1cccc(C2CNCCc3c2cc(O)c(O)c3Cl)c1 (centres unmarked) [A, 6 - chloro - 7,8 - dihydroxy - 1 - (3 - hydroxyphenyl) - 2,3,4,5 - tetrahydro - 1 H - 3 - benzazepine]
ED15 ([1]; read-out: ED15): 0.35 µg/kg

Oc1ccc(C2CNCCc3c2cc(O)c(O)c3I)cc1 (centres unmarked) [F]
ED15 ([1]; read-out: ED15): 4.2 µg/kg

COC(=O)c1c(O)c(O)cc2c1CCNCC2c1ccc(O)cc1 (centres unmarked) [G, 6 - carbomethoxy - 7,8 - dihydroxy - 1 - (4 - hydroxyphenyl) - 2,3,4,5 - tetrahydro - 1H - 3 - benzazepine]
ED15 ([1]; read-out: ED15): 2.3 µg/kg

Nc1nc(N)c2nc(-c3ccccc3)c(N)nc2n1 [Triamterene, triamterene]
Glomerular Filtration Rate ([3]; Phase II): −3 | Potassium Execretion ([3]; Phase II): −3.65 | Glomerular Filtration Rate ([3]; Phase III): −15 | Potassium Execretion ([3]; Phase III): −5.44 | Glomerular Filtration Rate ([3]; Phase IV): −15** | Potassium Execretion ([3]; Phase IV): −5.61

Oc1ccc(C2CNCCc3c2cc(O)c(O)c3Br)cc1 (centres unmarked) [B]
ED15 ([1]; read-out: ED15): 5 µg/kg

CS(=O)(=O)O.Oc1ccc(C2CNCCc3c2cc(O)c(O)c3Cl)cc1 (centres unmarked) [6 - Chloro - 7,8 - dihydroxy - 1 - (4 - hydroxyphenyl) - 2,3,4,5 - tetrahydro - 1H - 3 - benzazepine methyl sulphonic acid salt]
diuretic effect [4]: no diuretic effect

Cc1c(O)c(O)cc2c1CCNCC2c1ccc(O)cc1 (centres unmarked) [C, 6 - methyl - 7,8 - dihydroxy - 1 - (4 - hydroxyphenyl) - 2,3,4,5 - tetrahydro - 1 H - 3 - benzazepine]
ED15 ([1]; read-out: ED15): 2.8 µg/kg

Oc1ccc(C2CNCCc3c2cc(O)c(O)c3Cl)cc1 (centres unmarked) [6 - chloro - 7,8 - dihydroxy - 1 - (p - hydroxyphenyl) - 2,3,4,5 - tetrahydro - 1 H - 3 - benzazepine]
ED15 ([1]; read-out: ED15): 0.3 µg/kg | Glomerular Filtration Rate ([3]; Phase II): 1 | Potassium Execretion ([3]; Phase II): −0.93** | Glomerular Filtration Rate ([3]; Phase III): −2 | Potassium Execretion ([3]; Phase III): −1.59 | Glomerular Filtration Rate ([3]; Phase IV): −2 | Potassium Execretion ([3]; Phase IV): 2.02

CC(C)C(=O)Oc1ccc(C2CNCCc3c2cc(OC(=O)C(C)C)c(OC(=O)C(C)C)c3Cl)cc1 (centres unmarked) [tri-O-isobutyryl derivative]
ED15 ([1]; read-out: ED15): 16 µg/kg

C=CCN1CCc2c(cc(O)c(O)c2Cl)C(c2ccc(O)cc2)C1 (centres unmarked)
renal dopaminergic activity ([1]; 0.3 ug/kg/min infusion rate): demonstrated activity
